{"source": "patent US20150258059A1", "about": "“ANTIMICROBIAL AND RADIOPROTECTIVE COMPOUNDS” (BioDiem, Ltd, priority 2001, published 2015)", "key": {"[1]": {"system": "Enterococcus faecalis ATCC 29212", "assay": "NCCLS broth microdilution MIC/MBC", "type": "cell-based", "conditions": "for MIC: Enterococcus faecalis, ATCC29212"}, "S. aureus": {"system": "S. aureus", "assay": "Antibacterial activity in the presence of blood, macrodilution", "type": "cell-based"}, "Haemophilus influenzae": {"system": "Haemophilus influenzae", "assay": "NCCLS broth microdilution MIC/MBC", "type": "cell-based", "conditions": "Table 9, 35° C., 24 hours"}, "[2]": {"system": "Staphylococcus aureus ATCC 29213", "assay": "NCCLS broth microdilution MIC/MBC", "type": "cell-based", "conditions": "for MIC: Staphylococcus aureus, ATCC29213, read-out: MIC"}, "[3]": {"system": "Escherichia coli ATCC 25922", "assay": "NCCLS broth microdilution MIC/MBC", "type": "cell-based", "conditions": "for MIC: Escherichia coli, ATCC25922, read-out: MIC"}, "[4]": {"system": "Pseudomonas aeruginosa ATCC 27853", "assay": "NCCLS broth microdilution MIC/MBC", "type": "cell-based", "conditions": "for MIC: Pseudomonas aeruginosa, ATCC27853, read-out: MIC"}, "[5]": {"conditions": "in vivo; cited from earlier work"}, "Microsporum gypseum": {"system": "Microsporum gypseum", "assay": "NCCLS broth macro-dilution MIC/MFC (RPMI)", "type": "cell-based", "conditions": "Table 10, 7 day, 30° C."}, "Rhodotorula rubra": {"system": "Rhodotorula rubra", "assay": "NCCLS broth macro-dilution MIC/MFC (RPMI)", "type": "cell-based", "conditions": "Table 10, 4 day, 30° C."}, "C. glabrate RMIT 157": {"system": "C. glabrate RMIT 157", "assay": "M38-P microdilution MIC/MFC", "type": "cell-based", "conditions": "Table 16, 24 h, 35° C."}, "C. tropicalis RMIT 181": {"system": "C. tropicalis RMIT 181", "assay": "M38-P microdilution MIC/MFC", "type": "cell-based", "conditions": "35° C."}, "Epidermophyton floccosum": {"system": "Epidermophyton floccosum", "assay": "NCCLS broth macro-dilution MIC/MFC (RPMI)", "type": "cell-based", "conditions": "Table 10, 7 day, 30° C."}, "Candida albicans": {"system": "Candida albicans", "assay": "NCCLS broth macro-dilution MIC/MFC (RPMI)", "type": "cell-based", "conditions": "Table 10, 4 day, 30° C."}, "C. parapsilosis RMIT 178": {"system": "C. parapsilosis RMIT 178", "assay": "M38-P microdilution MIC/MFC", "type": "cell-based", "conditions": "35° C."}, "Fusarium graminearum": {"system": "Fusarium graminearum", "assay": "microbe, parasite or virus in culture", "type": "cell-based"}, "[6]": {"system": "C. guillermondii RMIT 176", "assay": "M38-P microdilution MIC/MFC", "type": "cell-based", "conditions": "Table 16, 24 h, 35° C."}, "Cryptococcus neoformans": {"system": "Cryptococcus neoformans", "assay": "M38-P microdilution MIC/MFC", "type": "cell-based", "conditions": "Cryptococcus neoformans, Table 16, 24 h, 35° C., read-out: MIC"}, "C. krusei RMIT 177": {"system": "C. krusei RMIT 177", "assay": "M38-P microdilution MIC/MFC", "type": "cell-based", "conditions": "35° C."}, "Trichophyton rubrum": {"system": "Trichophyton rubrum", "assay": "NCCLS broth macro-dilution MIC/MFC (RPMI)", "type": "cell-based", "conditions": "Table 10, 7 day, 30° C."}}, "note": "Where two headings read alike, the source gives them in different places."}
{"compound": "O=C(O)c1cn(C2CC2)c2cc(N3CCNCC3)c(F)cc2c1=O", "note": "[Ciprofloxacin]", "values": [{"measurement": "MIC", "setting": "[1]; Table 9, 35° C., 24 hours", "result": 0.5, "unit": "µg/mL"}, {"measurement": "MIC", "setting": "[1]; Table 17, 2 or 3 replicates", "result": 0.5, "unit": "µg/mL"}, {"measurement": "MMC", "setting": "[1]; Table 9, 35° C., 24 hours", "result": 0.5, "unit": "µg/mL"}, {"measurement": "MMC", "setting": "[1]; Table 17, 2 or 3 replicates", "result": 0.5, "unit": "µg/mL"}, {"measurement": "decrease in activity", "setting": "S. aureus; in the presence of 10% plasma", "result": 4, "unit": "fold"}, {"measurement": "decrease in activity", "setting": "S. aureus; in the presence of whole blood", "result": 2, "unit": "fold"}, {"measurement": "MIC", "setting": "Haemophilus influenzae; Haemophilus influenzae, read-out: MIC", "result": 0.006, "unit": "µg/mL"}, {"measurement": "MMC", "setting": "Haemophilus influenzae", "result": 0.006, "unit": "µg/mL"}, {"measurement": "MIC", "setting": "[2]; Table 9, 35° C., 24 hours", "result": 0.25, "unit": "µg/mL"}, {"measurement": "MIC", "setting": "[2]; Table 17, 2 or 3 replicates", "result": 0.25, "unit": "µg/mL"}, {"measurement": "MMC", "setting": "[2]; Table 9, 35° C., 24 hours", "result": 0.25, "unit": "µg/mL"}, {"measurement": "MMC", "setting": "[2]; Table 17, 2 or 3 replicates", "result": 0.25, "unit": "µg/mL"}, {"measurement": "MIC", "setting": "[3]; Table 9, 35° C., 24 hours", "result": 0.02, "unit": "µg/mL"}, {"measurement": "MIC", "setting": "[3]; Table 17, 2 or 3 replicates", "result": 0.02, "unit": "µg/mL"}, {"measurement": "MMC", "setting": "[3]; Table 9, 35° C., 24 hours", "result": 0.02, "unit": "µg/mL"}, {"measurement": "MMC", "setting": "[3]; Table 17, 2 or 3 replicates", "result": 0.02, "unit": "µg/mL"}, {"measurement": "MIC", "setting": "[4]; Table 9, 35° C., 24 hours", "result": 0.25, "unit": "µg/mL"}, {"measurement": "MIC", "setting": "[4]; Table 17, 2 or 3 replicates", "result": 0.25, "unit": "µg/mL"}, {"measurement": "MMC", "setting": "[4]; Table 9, 35° C., 24 hours", "result": 0.25, "unit": "µg/mL"}, {"measurement": "MMC", "setting": "[4]; Table 17, 2 or 3 replicates", "result": 0.25, "unit": "µg/mL"}]}
{"compound": "NCCS", "note": "[mercamine, β-mercaptoethylamine]", "values": [{"measurement": "duration of radiation protecting activity", "setting": "[5]", "result": "15 to 30", "unit": "min"}, {"measurement": "period of action", "setting": "[5]", "result": "0.5 to 1", "unit": "h"}]}
{"compound": "Clc1ccc(COC(Cn2ccnc2)c2ccc(Cl)cc2Cl)c(Cl)c1", "note": "(centres unmarked) [Miconazole]", "values": [{"measurement": "MIC", "setting": "Microsporum gypseum; Nannizzia gypsea, 168 h", "result": 4, "unit": "µg/mL"}, {"measurement": "MMC", "setting": "Microsporum gypseum", "result": 64, "unit": "µg/mL"}, {"measurement": "MIC", "setting": "Rhodotorula rubra; Rhodotorula, 96 h", "result": 8, "unit": "µg/mL"}, {"measurement": "MMC", "setting": "Rhodotorula rubra", "result": 32, "unit": "µg/mL"}, {"measurement": "MMC", "setting": "C. glabrate RMIT 157", "result": 0.5, "unit": "µg/mL"}, {"measurement": "MIC", "setting": "C. glabrate RMIT 157; read-out: MIC", "result": 0.25, "unit": "µg/mL"}, {"measurement": "MIC", "setting": "C. tropicalis RMIT 181; Candida tropicalis, RMIT181, Table 16, 24 h, read-out: MIC", "result": 1, "unit": "µg/mL"}, {"measurement": "MMC", "setting": "C. tropicalis RMIT 181; Table 16, 24 h", "result": 2, "unit": "µg/mL"}, {"measurement": "MIC", "setting": "Epidermophyton floccosum; Epidermophyton floccosum, 168 h", "result": 0.25, "unit": "µg/mL"}, {"measurement": "MMC", "setting": "Epidermophyton floccosum", "result": 0.25, "unit": "µg/mL"}, {"measurement": "MIC", "setting": "Candida albicans; Candida albicans, 96 h", "result": 4, "unit": "µg/mL"}, {"measurement": "MMC", "setting": "Candida albicans", "result": 8, "unit": "µg/mL"}, {"measurement": "MIC", "setting": "C. parapsilosis RMIT 178; Lodderomyces parapsilosis, RMIT178, Table 16, 24 h, read-out: MIC", "result": 0.5, "unit": "µg/mL"}, {"measurement": "MMC", "setting": "C. parapsilosis RMIT 178; Table 16, 24 h", "result": 0.5, "unit": "µg/mL"}, {"measurement": "MIC", "setting": "Fusarium graminearum; Fusarium graminearum, 168 h", "result": 32, "unit": "µg/mL"}, {"measurement": "MMC", "setting": "Fusarium graminearum; Table 10, 7 day, 30° C.", "result": 32, "unit": "µg/mL"}, {"measurement": "MMC", "setting": "[6]", "result": 1, "unit": "µg/mL"}, {"measurement": "MIC", "setting": "[6]; read-out: MIC", "result": 1, "unit": "µg/mL"}, {"measurement": "MIC", "setting": "Cryptococcus neoformans", "result": 4, "unit": "µg/mL"}, {"measurement": "MIC", "setting": "C. krusei RMIT 177; Pichia kudriavzevii, RMIT177, Table 16, 24 h, read-out: MIC", "result": 2, "unit": "µg/mL"}, {"measurement": "MMC", "setting": "C. krusei RMIT 177; Table 16, 24 h", "result": 2, "unit": "µg/mL"}, {"measurement": "MMC", "setting": "Trichophyton rubrum", "result": 64, "unit": "µg/mL"}, {"measurement": "MIC", "setting": "Trichophyton rubrum; Trichophyton rubrum, 168 h", "result": 1, "unit": "µg/mL"}]}
{"compound": "NCCSSCCN", "note": "[cystamine]", "values": [{"measurement": "index of protection", "setting": "[5]", "result": "≤ 1.45"}, {"measurement": "side effect", "setting": "[5]", "result": "causes diarrhea"}]}
